# Reference: patent US20140066394A1, “Substituted 6-(Benzylamino) Purine Riboside Derivatives, Use Thereof and Compositions Containing These Derivatives” (Biopatterns, S.R.O, priority 2009, published 2014)
# What was measured:
# neutrophils [1] = experiment: Neutrophil adhesion, rolling and migration under flow over TNF primed HUVEC; assay type: cell-based, human
# Experimental: Neutrophils were introduced into a flow based cell adhesion instrument at 5×10^6 cells/ml in medium containing 50 or 100 μM of compound 10. The capillary system is lined with TNF-primed HUVEC and cell adhesion, rolling and transmigration is monitored by time-lapse video microscopy. Data are expressed as cells adhered to HUVEC per mm^2, per 10^6 cells (left panel) or % of cells rolling or migrated (right panel). LGR 1406 (N-5-(2-aminocyclohexyl)-N-7-benzyl-3-isopropyl-1(2)H-pyrazolo[4,3-d]pyrimidine-5,7-diamine, Sroka et al. Mol Pharmacol. 2010; 77(2):255-61) was used as a negative control. Data are mean±SD of 3 separate experiments.
# LGR 1406 as a negative control.
# The ability of neutrophils to adhere to vascular endothelium and migrate from the blood into tissue, is the first step in the inflammatory process. Interference with this process would also result in suppression of inflammation. Neutrophils were flowed over TNF primed endothelial cells (HUVEC) lining a capillary based migration system, at flows rates and pressures mimicking the in vivo vasculature (see for detailed description of apparatus). Cells were recorded using time-lapse video microscopy and the numbers of rolling, adhered and transmigrated cells were enumerated over a 20 minute period. In test incubations the neutrophils and HUVEC were pre-treated with compound 10 at 50 and 100 μM and the compound was also present in the medium in which neutrophils were suspended.
# neutrophils [2] = experiment: Neutrophil spreading in Fibronectin; assay type: cell-based; conditions: FIG. 8
# [3] = system: Human T-lymphoblastic leukemia cell line CEM; experiment: In vitro cytotoxicity, Calcein AM assay, CEM; assay type: cell-based; conditions: Homo sapiens, 72 hours
# Excerpt: (§1) Low cytotoxicity of the compounds is the major property determining the cosmetic use. One of the parameters used, as the basis for cytotoxicity assays, is the metabolic activity of viable cells. For example, a microtiter assay, which uses the Calcein AM, is now widely used to quantitate cell proliferation and cytotoxicity. For instance, this assay is used in drug screening programs and in chemosensitivity testing. Because only metabolically active cells cleave Calcein AM, these assays detect viable cells exclusively. The quantity of […] Calcein AM corresponds to the number of vital cells in the culture.
# (§2) Human T-lymphoblastic leukemia cell line CEM; promyelocytic HL-60 and monocytic U937 leukemias; breast carcinoma cell lines MCF-7, BT549, MDA-MB-231; glioblastoma U87MG cells; cervical carcinoma cells HELA; sarcoma cells U2OS and Saos2; hepatocellular carcinoma HepG2; mouse fibroblasts NIH3T3; mouse immortalized bone marrow macrophages B2.4 and B10A.4; P388D1 and L1210 leukemia; B16 and B16F10 melanomas; human osteosarcoma HOS; human myeloid leukemia K-562; human skin melanoma G-361 were used for routine screening of compounds. The cells were maintained in Nunc/Corning 80 cm^2 plastic tissue culture flasks and cultured in cell culture medium (DMEM with 5 g/l glucose, 2 mM glutamine, 100 U/mL penicillin, 100 μg/mL streptomycin, 10% fetal calf serum and sodium bicarbonate).
# (§3) The cell suspensions that were prepared and diluted according to the particular cell type and the expected target cell density (2.500-30.000 cells per well based on cell growth characteristics) were added by pipette ([…]) into 96/well microtiter plates. Inoculates were allowed a pre-incubation period of 24 hours at 37° C. and 5% CO2 for stabilisation. Four-fold dilutions of the intended test concentration were added at time zero in 20 μl aliquots to the microtiter plate wells. Usually, the compound tested was evaluated at six 4-fold dilutions. In routine testing, the highest well concentration was 100 μM, but it can be the matter of change dependent on the agent. All drug concentrations were examined in duplicates. Incubations of cells with the tested compounds lasted for 72 hours at 37° C., in 5% CO2 atmosphere and 100% humidity. At the end of the incubation period, the cells were assayed by using Calcein AM. Ten microliters of the stock solution were pipetted into each well and incubated for 1 hour. Fluorescence (FD) was measured with the Labsystem FIA Reader Fluoroscan Ascent (UK). The tumour cell survival (GI50) was calculated using the following equitation: TCS=(FDdrug exposed well/mean FDeontrol wells)×100%. The GI50 value, the drug concentration lethal to 50% of the tumour cells, was calculated from the obtained dose response curves.
# (§4) Zero cytotoxicity of the novel compounds is the basic prerequisite for agricultural and tumor-unrelated applications. The cytoxicity of the novel compounds was tested on a panel of cell lines of different histogenetic and species origin (Table 9). We show herein that equal activities were found in all tumour cell lines tested, however, the non-malignant cells, e.g. NIH3T3 fibroblasts and normal human lymphocytes, were resistant to 2,6-disubstituted purine ribosides induced cytotoxicity. The compounds listed in Tab. 9 can be divided into 2 groups. The first group contains “classical cytokinins” represented by 6-substituted purine ribosides (which are known in the prior art). The second group contains the novel 2,6-disubstituted derivatives of these compounds. […] GI50 for NIH3T3 fibroblasts and normal human lymphocytes was always higher than 100 μM. The novel derivatives show no toxicity to normal and tumour cells in concentrations about 100 μM and thus are more suitable for agricultural applications than “classical cytokinins” (6-substituted purine riboside derivatives).
# human osteosarcoma HOS = experiment: In vitro cytotoxicity, Calcein AM assay, HOS; assay type: cell-based; conditions: Homo sapiens, 72 hours
# Excerpt: as §1, §2, §3, §4
# [4] = system: human skin melanoma G-361; experiment: In vitro cytotoxicity, Calcein AM assay, G-361; assay type: cell-based; conditions: Homo sapiens, G-361, 72 hours
# Excerpt: as §1, §2, §3, §4
# [5] = compound at 50 and 100 μM, 20 minute period
structure (smiles),measurement,setting,value
"COc1cccc(CNc2nc(Cl)nc3c2ncn3C2OC(CO)C(O)C2O)c1O (stereo not shown) [Compound 10, 2-Chloro-6-(2-hydroxy-3-methoxybenzylamino)purine riboside]",neutrophil rolling velocity,"neutrophils [1]; FIG. 7, LGR 1406 as negative control",positive effects
same,number of cells that adhered and transmigrated through the endothelial layer,neutrophils [1]; [5],reduced the number of cells that adhered and transmigrated
same,number of cells that rolled over the endothelium,neutrophils [1]; [5],increased the ones that rolled over the endothelium
same,neutrophil spreading in Fibronectin,neutrophils [2],reduces neutrophil spreading
same,GI50,[3],> 100 µM
same,GI50,human osteosarcoma HOS,> 100 µM
same,GI50,[4],> 100 µM
